Test results: patent publication US20100056565A1, “Heterocyclic Derivatives as M3 Muscarinic Receptors” (priority 2007, published 2010)
Structures can show the parent of a compound that is named as a salt.

Target: T1, Recombinant human M3 receptor (Homo sapiens, UniProt P20309)
T1 construct: expressed in transfected cells; host or cells: CHO-K1 cells (membranes)
Experiment: biochemical
Assay type: binding
Conditions: SPA format; read-out: M3 Ki (SPA format)
Description: Recombinant human M3 receptor was expressed in CHO-K1 cells. Cell membranes were prepared and binding of [3H]-N-methyl scopolamine ([3H]-NMS) and compounds was assessed by a scintillation proximity assay (SPA). The incubation time was 16 hours at room temperature in the presence of 1% (v/v) DMSO. The assay was performed in white 96 well clear-bottomed NBS plates (Corning). Prior to the assay, the CHO cell membranes containing M3 receptor were coated onto SPA WGA (Wheat germ agglutinin) beads (GE Healthcare). Non specific binding was determined in the presence of 1 μM Atropine.
Radioactivity was measured on a Microbeta scintillation counter (PerkinElmer) using a 3H protocol with a 2 minutes per well read time. […] Concentration dependent inhibition of [3H]-NMS binding by compounds was expressed as pIC50.

T1 sequence (P20309 whole entry): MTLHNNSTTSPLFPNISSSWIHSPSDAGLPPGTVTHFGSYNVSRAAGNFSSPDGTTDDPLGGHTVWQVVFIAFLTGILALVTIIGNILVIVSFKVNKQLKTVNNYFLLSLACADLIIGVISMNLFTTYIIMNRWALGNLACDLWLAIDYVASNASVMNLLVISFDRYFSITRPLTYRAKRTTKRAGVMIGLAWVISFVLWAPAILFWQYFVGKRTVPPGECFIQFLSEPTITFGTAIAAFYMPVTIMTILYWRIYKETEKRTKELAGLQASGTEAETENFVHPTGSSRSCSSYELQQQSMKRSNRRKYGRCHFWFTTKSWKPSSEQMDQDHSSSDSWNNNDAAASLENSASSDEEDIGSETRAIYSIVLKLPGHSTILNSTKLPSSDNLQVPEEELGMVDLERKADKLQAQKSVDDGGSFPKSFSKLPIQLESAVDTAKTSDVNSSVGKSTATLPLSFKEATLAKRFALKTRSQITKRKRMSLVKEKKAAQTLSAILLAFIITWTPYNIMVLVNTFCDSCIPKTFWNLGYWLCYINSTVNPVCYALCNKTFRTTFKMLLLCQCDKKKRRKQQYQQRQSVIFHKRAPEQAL

SMILES	Ki
OC(c1ccccc1)(c1ccccc1)c1noc(C[N+]23CCC(CC2)[C@@H](Oc2cccc(C(F)(F)F)c2)C3)n1 [Example 137, (R)-1-[3-(Hydroxy-diphenyl-methyl)-[1,2,4]oxadiazol-5-ylmethyl]-3-(3-trifluoromethyl-phenoxy)-1-azonia-bicyclo[2.2.2]octane; chloride]	< 5 nM
O[C@](c1ccccc1)(c1ncc(C[N+]23CCC(CC2)[C@@H](Oc2cccc(Cl)c2)C3)o1)C1CCCCC1 [Example 65, (R)-3-(3-Chloro-phenoxy)-1-[2-((R)-cyclohexyl-hydroxy-phenyl-methyl)-oxazol-5-ylmethyl]-1-azonia-bicyclo[2.2.2]octane; bromide]	< 5 nM
OC(c1ccccc1)(c1ccccc1)c1ncc(C[N+]23CCC(CC2)[C@@H](Oc2ccc(F)cc2)C3)o1 [Example 72, (R)-3-(4-Fluoro-phenoxy)-1-[2-(hydroxy-diphenyl-methyl)-oxazol-5-ylmethyl]-1-azonia-bicyclo[2.2.2]octane; bromide]	< 5 nM
O[C@](c1ccccc1)(c1ncc(C[N+]23CCC(CC2)C(COc2cccc(F)c2)C3)o1)C1CCCCC1 (single isomer, unassigned) [Example 81]	< 5 nM
O[C@](c1ccccc1)(c1ncc(C[N+]23CCC(CC2)C(Sc2ccccc2)C3)o1)C1CCCCC1 (stereo partly drawn) [Example 69, 1-[2-(R)-cyclohexyl-hydroxy-phenyl-methyl)-oxazol-5-ylmethyl]-3-phenylsulfanyl-1-azonia-bicyclo[2.2.2]octane; formate]	< 5 nM
O[C@](c1ccccc1)(c1ncc(C[N+]23CCC(CC2)[C@@H](CSc2cccc(F)c2)C3)o1)C1CCCCC1 [Example 108, (R)-1-[2-((R)—Cyclohexyl-hydroxy-phenyl-methyl)-oxazol-5-ylmethyl]-3-(3-fluoro-phenylsulfanylmethyl)-1-azonia-bicyclo[2.2.2]octane; bromide]	< 5 nM
OC(c1ccccc1)(c1ccccc1)c1ncc(C[N+]23CCC(CC2)[C@@H](Oc2cccc(Cl)c2Cl)C3)o1 [Example 77, (R)-3-(2,3-dichloro-phenoxy)-1-[2-(hydroxy-diphenyl-methyl)-oxazol-5-ylmethyl]-1-azonia-bicyclo[2.2.2]octane; bromide]	> 20 nM
O[C@](c1ccccc1)(c1ncc(C[N+]23CCC(CC2)C(c2ccccc2)C3)o1)C1CCCCC1 (stereo partly drawn) [Example 88, 1-[2-((R)—Cyclohexyl-hydroxy-phenyl-methyl)-oxazol-5-ylmethyl]-3-phenyl-1-azonia-bicyclo[2.2.2]octane; bromide]	5 to 20 nM
CC(C)=CCO[C@H]1C[N+]2(Cc3cnc([C@](O)(c4ccccc4)C4CCCCC4)o3)CCC1CC2 [Example 38, (R)-1-[2-((R)-cyclohexyl-hydroxy-phenyl-methyl)-oxazol-5-ylmethyl]-3-(3-methyl-but-2-enyloxy)-1-azonia-bicyclo[2.2.2]octane; formate]	< 5 nM
Cc1ccc(O[C@H]2C[N+]3(Cc4nc(C(O)(c5ccccc5)C5CCCCC5)no4)CCC2CC3)cc1Cl (single isomer, unassigned) [Example 129]	< 5 nM
CC(C)CS[C@H]1C[N+]2(Cc3cnc([C@](O)(c4ccccc4)C4CCCCC4)o3)CCC1CC2 [Example 120, (R)-1-[2-((R)—Cyclohexyl-hydroxy-phenyl-methyl)-oxazol-5-ylmethyl]-3-isobutylsulfanyl-1-azonia-bicyclo[2.2.2]octane; bromide]	< 5 nM
O[C@](c1ccccc1)(c1ncc(C[N+]23CCC(CC2)[C@@H](OC2CCCCO2)C3)o1)C1CCCCC1 (stereo partly drawn) [Example 96, (R)-1-[2-((R)—Cyclohexyl-hydroxy-phenyl-methyl)-oxazol-5-ylmethyl]-3-(tetrahydro-pyran-2-yloxy)-1-azonia-bicyclo[2.2.2]octane; bromide]	< 5 nM
OC(c1ccccc1)(c1ccccc1)c1ncc(C[N+]23CCC(CC2)C(COc2cccc(F)c2)C3)o1 (single isomer, unassigned) [Example 83, 3-(3-Fluoro-phenoxymethyl)-1-[2-(hydroxy-diphenyl-methyl)-oxazol-5-ylmethyl]-1-azonia-bicyclo[2.2.2]octane; bromide]	5 to 20 nM
O[C@@](c1ccccc1)(c1ncc(C[N+]23CCC(CC2)CC3)o1)C1CCCCC1 [Example 5, 1-[2-((S))-Cyclohexyl-hydroxy-phenyl-methyl)-oxazol-5-ylmethyl]-1-azonia-bicyclo[2.2.2]octane bromide]	< 5 nM
OC(c1ccccc1)(c1ccccc1)c1noc(C[N+]23CCC(CC2)[C@@H](Oc2ccc(Cl)cc2)C3)n1 [Example 136, (R)-3-(4-Chloro-phenoxy)-1-[3-(hydroxy-diphenyl-methyl)-[1,2,4]oxadiazol-5-ylmethyl]-1-azonia-bicyclo[2.2.2]octane; chloride]	< 5 nM
OC(c1ccccc1)(c1ccccc1)c1ncc(C[N+]23CCC(CC2)[C@@H](Oc2ccc4c(c2)OCO4)C3)o1 [Example 79, (R)-3-(Benzo[1,3]dioxal-5-yloxy)-1-[2-(hydroxy-diphenyl-methyl)-oxazol-5-ylmethyl]-1-azonia-bicyclo[2.2.2]octane; bromide]	< 5 nM
O[C@](c1ccccc1)(c1ncc(C[N+]23CCC(CC2)[C@@H](CSc2ccc(F)cc2)C3)o1)C1CCCCC1 [Example 106, (R)-1-[2-((R)—Cyclohexyl-hydroxy-phenyl-methyl)-oxazol-5-ylmethyl]-3-(4-fluoro-phenylsulfanylmethyl)-1-azonia-bicyclo[2.2.2]octane; bromide]	< 5 nM
OC(c1ccccc1)(c1ccccc1)c1ncc(C[N+]23CCC(CC2)[C@@H](Sc2ccc(F)cc2)C3)o1 [Example 97, (R)-3-(4-Fluoro-phenylsulfanyl)-1-[2-(hydroxy-diphenyl-methyl)-oxazol-5-ylmethyl]-1-azonia-bicyclo[2.2.2]octane; bromide]	< 5 nM
OC(c1ccccc1)(c1cc(C[N+]23CCC(CC2)[C@@H](OCc2ccc(F)cc2)C3)on1)C1CCCCC1 (single isomer, unassigned) [Example 54]	< 5 nM
OC(c1ccccc1)(c1ccccc1)c1ncc(C[N+]23CCC(CC2)[C@@H](COc2ccccc2)C3)o1 [Example 26, (R)-1-[2-(Hydroxy-diphenyl-methyl)-oxazol-5-ylmethyl]-3-phenoxymethyl-1-azonia-bicyclo[2.2.2]octane; bromide]	< 5 nM
OC(c1ccccc1)(c1ccccc1)c1ncc(C[N+]23CCC(CC2)[C@@H](OCc2cccc(F)c2)C3)o1 [Example 49, (R)-3-(3-fluoro-benzyloxy)-1-[2-(hydroxy-diphenyl-methyl)-oxazol-5-ylmethyl]-1-azonia-bicyclo[2.2.2]octane; formate]	< 5 nM
OC(c1ccccc1)(c1ccccc1)c1ncc(C[N+]23CCC(CC2)[C@@H](Oc2ccc(Cl)c(Cl)c2)C3)o1 [Example 78, (R)-3-(3,4-dichloro-phenoxy)-1-[2-(hydroxy-diphenyl-methyl)-oxazol-5-ylmethyl]-1-azonia-bicyclo[2.2.2]octane; bromide]	< 5 nM
O=C(N[C@@H]1C[N+]2(Cc3cnc([C@](O)(c4ccccc4)C4CCCCC4)o3)CCC1CC2)c1ccccc1 [Example 15, (S)-3-Benzoylamino-1-[2-((R)-cyclohexyl-hydroxy-phenyl-methyl)-oxazol-5-ylmethyl]-1-azonia-bicyclo[2.2.2]octane; formate]	< 5 nM
